Data set [1] deals with SKOV3 cells adhesion to FN. Description: Solid phase adhesion assay to FN, SKOV3. The format is cell-based. Particulars: FN 5 μg/mL, FIG. 2E. The method, then: Cells labeled with calcein AM (Life Technologies, #L3224) were seeded at a density of 4×10^4 cells in 96-well plates pre-coated with FN (5 μg/mL, Sigma, #F1141), and blocked using 1% BSA (Sigma, #A9647) in PBS in the presence of selected compounds diluted at the specified concentrations, in serum free media. After 45 minutes, unattached cells were washed using PBS containing 1 mM MgCl2(Sigma, #M8266) and adherent cells were quantified in a SpectraMaxGeminiXS fluorescence plate reader (Molecular Devices, Palo Alto, Calif.) at 530 nm wavelength. Experiments were performed inquadruplicate and repeated at least twice.

Data set [2] concerns the target T1, His-tagged TG2 / biotinylated FN42 interaction (Homo sapiens, UniProt P21980).
T1 construct: made in house
T1 sequence (P21980 1-687): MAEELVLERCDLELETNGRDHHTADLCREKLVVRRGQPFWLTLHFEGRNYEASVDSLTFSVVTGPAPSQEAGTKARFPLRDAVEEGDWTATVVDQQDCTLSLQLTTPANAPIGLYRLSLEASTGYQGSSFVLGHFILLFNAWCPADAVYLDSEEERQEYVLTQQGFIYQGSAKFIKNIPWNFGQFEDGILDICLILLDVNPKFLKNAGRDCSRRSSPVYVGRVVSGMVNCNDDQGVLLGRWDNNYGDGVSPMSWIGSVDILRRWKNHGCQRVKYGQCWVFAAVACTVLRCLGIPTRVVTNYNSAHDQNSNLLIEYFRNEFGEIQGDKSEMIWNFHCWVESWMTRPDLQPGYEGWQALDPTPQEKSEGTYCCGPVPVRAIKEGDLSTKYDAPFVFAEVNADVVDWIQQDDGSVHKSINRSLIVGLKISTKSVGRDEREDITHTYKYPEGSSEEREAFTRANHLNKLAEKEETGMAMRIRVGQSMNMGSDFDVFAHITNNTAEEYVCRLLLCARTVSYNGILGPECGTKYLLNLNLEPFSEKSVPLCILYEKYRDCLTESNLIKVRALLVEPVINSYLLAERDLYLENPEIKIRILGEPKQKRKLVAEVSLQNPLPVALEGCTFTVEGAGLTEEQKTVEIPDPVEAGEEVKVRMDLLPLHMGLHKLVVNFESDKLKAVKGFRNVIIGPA
Kind of data set: ELISA of the TG2-FN interaction. It counts as binding. Particulars: 10 μM. The method, then: Confirmation using ELISA: An independent ELISA validated inhibition of TG2/FN complex formation by SMIs^11. The ELISA assay measured the binding between His6-TG2 captured to the wells by anti-His antibodies and biotinylated FN42 detectable with streptavidin-HRP (FIG. 12A). […] Selected compounds (at concentrations between 5 and 10 μM) inhibited the ELISA signal by 29.7% to 69.5%^11.
ELISA measured the interaction between recombinant His tagged TG2 (rTG2-His) and the biotinylated 42 kD fragment of FN (FN42) which were expressed and purified, as previously described (Yakubov et al., 2014). Briefly, a mixture of 10 nMrTG2-His and selected SMIs or DMSO was added to 96 well plates pre-coated with monoclonal anti-His antibody (Roche, Indianapolis, Ind.; 1:6000). The mixture was incubated for 1 h at RT with 5 nM biotinylated FN42. After washing, wells were incubated with streptavidin-HRP (Cell Signaling, #3999; 1:2000). The reaction was developed with 3,3′,5,5′tetramethylbenzidine (TMB) substrate (BD Biosciences, #555214) and the optical density at […] was measured by using a BioTek microplate reader (Winooski, Vt., USA). Data shown are means±SEM of two independent experiments (n=6).

A further data set relates to SKOV3 cells. Description: Wound-healing assay, SKOV3. It counts as cell-based. As to conditions: 8 μM, 24 hours. The procedure: (§1) Wound Healing was Performed in 12-Well Plates Coated with 1 μg/Ml FN (Sigma, #1141) overnight at 4° C. OC cells were plated at a density of 2×10^5 cells/well in media containing 2% FBS. Under these conditions cells adhered on substrate, but cell proliferation was minimized. After 16 hours, the cell monolayer was scraped in straight line. Cell debris was removed and serum free media containing selected SMIs or control was replenished. For consistency during image acquisition, a reference point was marked close to the scratch mark and the plate was imaged under phase-contrast microscope at 0, 2, 6, 12 and 24 hours. Wound closure was assessed as the distance between the wound edges, calculated and quantified using the Image Pro-Express software. The percentage of wound closure was evaluated using the formula […]. The rate of migration (μm/h) of OC cells into the wound space was evaluated as the distance difference between wound edges at 0 and 24 h, divided by 24. The experiments were performed in duplicates.

The test system of data set [3] is OVCAR433 cells adhesion onto LP9 monolayers. Kind of data set: Cell adhesion to LP9 mesothelial monolayers, OVCAR433. The format is cell-based. As to conditions: at concentrations >10 μM. The method, then:
(§2) LP9 mesothelial cells added to clear-bottom 96-well plate at 12,000 cells/well were grown to confluency over 48 hours (h). OC cells were labeled with calcein AM and seeded at a density of 4×10^4 cells to monolayers of mesothelial cells and incubated for 1 h. Non-adherent cells were removed by washing with PBS.

Data set [4] relates to SKOV3 cells adhesion onto LP9 monolayers. Description: Cell adhesion to LP9 mesothelial monolayers, SKOV3. The format is cell-based. Particulars: 25 μM. The procedure: as §2
The subject of the next data set is OVCAR5 cells. Description: Wound-healing assay, OVCAR5. The format is cell-based, human. As to conditions: 8 μM, 24 hours. The method, then:
as §1

The test system of data set [5] is FAK phosphorylation in SKOV3 cells. Kind of data set: Western blotting, FAK phosphorylation dose response. It counts as cell-based. Particulars: increasing doses (TG53 8 to 16 μM), 2 hours after adhesion to FN. The procedure:
FIG. 33. Dose response effects induced by TG2-FN inhibitors on FAK phosphorylation.
Lysates were separated by SDS-PAGE, transferred onto PVDF membranes (Bio-Rad), incubated with primary and secondary antibodies and developed by using SuperSignal™ West Femto Maximum Sensitivity Substrate and Pierce™ ECL Western Blotting Substrate, respectively (Thermo Scientific). Images were obtained by using the ImageQuant LAS 4000 mini-imager (GE Healthcare, Pittsburgh, Pa.). Densitometry analysis was performed using Quantity One software (Bio-Rad) and results were normalized to GAPDH loading controls. DMSO 0 min time point was considered as 1 for comparative analysis.

The next data set is described as follows: Solubility assay. The format is physicochemical. Particulars: aqueous buffer, kinetic from dmso stock; pH=7.4 PBS buffer, 2% DMSO. The procedure: Solubility was measured in a 384-well plate using a Synergy HTX plate reader. Starting with a 50 mM DMSO stock solution of test compounds, dilutions were made from 1 to 500 μM final concentrations using acetonitrile, keeping the final DMSO concentration at 2%. UV absorption was measured at 254 nm and absorbance versus concentration was plotted to give a standard curve. A DMSO stock of test compound was also diluted with pH=7.4 PBS buffer to give a final concentration of 250 μM containing 2% DMSO. This mixture was stirred on a plate shaker for 1 hr after which it was centrifuged at 2500 rpm for 3 min. 50 μL of the supernatant was removed, transferred to a 384-well plate, and the UV absorbance at 254 nm was measured. Absorbance of the test compound in PBS buffer was analyzed with the standard curve to determine solubility.

Another data set has as its system SKOV3-GFP cells. Description: In vivo cell attachment to the peritoneum. More on the design: species or system mice. Particulars: for unattached OC cells recovered from the peritoneal cavity: NSG mice, ip, 10 μg/kg, 2 hours after injection.

SMILES strings stand for the structures.

Take `COc1cccc(C(=O)Nc2ccc(Nc3nc(C)cc(N(C)C)n3)cc2)c1` [MT-2]: the “OC cells' adhesion to FN” value in data set [1] is given as “potently blocked”.

As for `Cc1cc(N(C)C)nc(Nc2ccc(NC(=O)c3ccc(Cl)c(Cl)c3)cc2)n1` [MT-3], in data set [2], the “inhibition of rTG2-FN42 interaction relative to TG53” value is on record as “slightly more potently than TG53”.

Turning to `Cc1cc(N(C)C)nc(Nc2ccc(NC(=O)c3ccc4ccccc4c3)cc2)n1` [MT-5], the “motility (scratch repair)” value with SKOV3 cells and in the data set on OVCAR5 cells was “inhibited” in each case. In addition, the “inhibition of rTG2-FN42 interaction relative to TG53” value in [2] is recorded as “slightly more potently than TG53”. In addition, the “OVCAR433 adhesion to the LP9 layer” value in [3] is “dose-dependent inhibitory effect”. Besides, the “SKOV3 cell binding to the mesothelial layer” value in data set [4] is on record as “significantly decreased”. Besides, the “OC cells' adhesion to FN” value in data set [1] was “potently blocked”. For the same compound, the FAK phosphorylation result in data set [5] is listed as “dose-dependent inhibition”.

Regarding `Cc1cc(N(C)C)nc(Nc2ccc(NC(=O)c3cccc(Br)c3)cc2)n1` [MT-6], the “motility (scratch repair)” value with SKOV3 cells and with OVCAR5 cells was “inhibited” in each case. Also, the solubility at 1 h in “Solubility assay” stood at 6.4 µM. For the same compound, the “inhibition of rTG2-FN42 interaction relative to TG53” value in data set [2] was “slightly more potently than TG53”. In data set [3], the “OVCAR433 adhesion to the LP9 layer” value is “dose-dependent inhibitory effect”. Further, the “unattached OC cells recovered from the peritoneal cavity” value with SKOV3-GFP cells is on record as “attached less efficiently”; in the data set with SKOV3-GFP cells (listed as MT6), “Increased numbers”. Further, in the data set on SKOV3-GFP cells (nude mice, i.p., 2 hours), the “adhesion of cancer cells to the peritoneum” value is on record as “prevented the adhesion”. The “OC cells' adhesion to FN” value in data set [1] is recorded as “potently blocked”.

These data come from patent US20210276960A1, “INHIBITORS OF TISSUE TRANSGLUTAMINASE 2 (TG2) AND USES THEREOF” (Northwestern University, priority 2020, published 2021).
